Blank lines part the entries; values can stand above or below the compound they belong to. The source made the active and inactive calls. The rule behind the calls is not given here.
Columns and labels:
[1] = system: Strongylocentrotus purpuratus; experiment: Agonist activity at cADPR binding protein in sea urchin egg homogenate assessed as increase in Ca2+ release at 100 uM by Fluo-3 based fluorescence assay relative to control; assay type: tissue-based
[2] = system: U2OS; experiment: Agonist activity at cADPR binding protein in human U2OS cells expressing GCaMP6M assessed as increase in Ca2+ release at 30 uM by confocal Ca2+ imaging analysis; assay type: cell-based; conditions: filed as agonist
[3] = Agonist activity at cADPR binding protein in sea urchin egg homogenate assessed as increase in Ca2+ release by Fluo-3 based fluorescence assay; assay type: tissue-based, Strongylocentrotus purpuratus
[4] = Antagonist activity at cADPR binding protein in sea urchin egg homogenate assessed as inhibition of cADPR-induced Ca2+ release by Fluo-3 based fluorescence assay; assay type: tissue-based, Strongylocentrotus purpuratus

Activity [1]: < 10%
SMILES: C#CCO[C@@H]1[C@H](O)[C@H]2COP(=O)(O)OP(=O)(O)OC[C@H]3O[C@H]([C@H](O)[C@@H]3O)[n+]3cnc4c(nc(N=[N+]=[N-])n4[C@@H]1O2)c3N

EC50 [3]: 110 nM
SMILES: Nc1c2ncn3c2nc[n+]1[C@@H]1O[C@H](COP(=O)([O-])OP(=O)(O)OC[C@H]2O[C@@H]3[C@H](O)[C@@H]2O)[C@@H](O)[C@H]1O
Activity [2]: Active

IC50 [4]: 7 nM
SMILES: [N-]=[N+]=Nc1nc2c(N)[n+]3cnc2n1[C@@H]1O[C@H](COP(=O)(O)OP(=O)(O)OC[C@H]2O[C@@H]3[C@H](O)[C@@H]2O)[C@@H](O)[C@H]1O

EC50 [3]: 8460 nM
SMILES: C#CCO[C@@H]1[C@H](O)[C@H]2COP(=O)(O)OP(=O)([O-])OC[C@H]3O[C@H]([C@H](O)[C@@H]3O)[n+]3cnc4c(ncn4[C@@H]1O2)c3N

From ChEMBL document CHEMBL5150058, “Synthesis and biological evaluation of novel photo-clickable adenosine and cyclic ADP-ribose analogs: 8-N3-2'-O-propargyladenosine and 8-N3-2'-O-propargyl-cADPR” (Bioorg Med Chem, 2022)
